Measured values: patent publication US20240408145A1, “Gene Therapy” (Ospedale San Raffaele S.r.l., priority 2021, published 2024)
“Also recorded” adds a separate entry of the source.

Tested on: CB-derived HSPCs
Assay: Whole transcriptomic analysis with GSEA
Assay type: cell-based, human
Conditions: CB HSPCs edited in presence of Anakinra vs not treated, 24 and 96 h
Description: Whole transcriptomic analysis was performed on a pool of HSPCs derived from five CB donors. All conditions were performed in triplicate. […] RNA was quantified with The Qubit 2.0 Fluorometer (ThermoFisher) and its quality was assessed by a 2100 Agilent Bioanalyser (Agilent Technologies). Minimum quality was defined as RNA integrity number (RIN) >8,300 ng of total RNA were used for library preparation with TruSeq Stranded Total RNA with Ribo-Zero Gold kit (Illumina) and sequenced on a NextSeq 500 (Illumina). Read quality was determined using FastQC and low-quality sequences were trimmed using Trimmomatic. RNA-seq data were aligned to the human reference genome (GRCh38/hg38) using both HISAT2 and STAR with standard input parameters. Gene counts were produced using Subread featureCounts against Genecode v26 or v31, considering results produced by both the aligners. After visual inspection of results, we continued the analysis using alignments achieved using HISAT, which provided more conservative alignments. […] Differential expression was determined considering only protein coding genes and correcting p-values using FDR.

In the case of “Anakinra: recombinant and slightly modified form of the Human interleukin-1 receptor antagonist (IL-1Ra); SEQ ID NO: 3”, the “GSEA normalized enrichment scores for inflammatory/TNFα dependent pathways, interferon responses, senescence categories” value is reported as “negative and significantly high normalized enrichment scores (NES); also recorded: downregulated early and late upon Anakinra treatment”.
